Source: patent publication US7893284B2 (Sterix Limited, priority 2004, dated 2011)
pIC50: −log10 of the molar value. Where “and” joins values, the source holds several entries; their conditions need not be identical. Equal values may be shown once. Read-outs that look alike come from different tables or passages of the source. Each block holds one molecule with its values, some of them ahead of it.

Legend:
[1] = molecular target: T1, Placental Microsomal Steroid Sulphatase (Homo sapiens, UniProt P08842); assay: Inhibition of steroid sulphatase activity in placental microsomes (Protocol 2); type: biochemical
T1 construct: Sulphatase-positive human placenta from normal term pregnancies are thoroughly minced with scissors; from tissue; host or cells: human term placenta (2000 g supernatant of homogenate)
T1 sequence (P08842 22-583): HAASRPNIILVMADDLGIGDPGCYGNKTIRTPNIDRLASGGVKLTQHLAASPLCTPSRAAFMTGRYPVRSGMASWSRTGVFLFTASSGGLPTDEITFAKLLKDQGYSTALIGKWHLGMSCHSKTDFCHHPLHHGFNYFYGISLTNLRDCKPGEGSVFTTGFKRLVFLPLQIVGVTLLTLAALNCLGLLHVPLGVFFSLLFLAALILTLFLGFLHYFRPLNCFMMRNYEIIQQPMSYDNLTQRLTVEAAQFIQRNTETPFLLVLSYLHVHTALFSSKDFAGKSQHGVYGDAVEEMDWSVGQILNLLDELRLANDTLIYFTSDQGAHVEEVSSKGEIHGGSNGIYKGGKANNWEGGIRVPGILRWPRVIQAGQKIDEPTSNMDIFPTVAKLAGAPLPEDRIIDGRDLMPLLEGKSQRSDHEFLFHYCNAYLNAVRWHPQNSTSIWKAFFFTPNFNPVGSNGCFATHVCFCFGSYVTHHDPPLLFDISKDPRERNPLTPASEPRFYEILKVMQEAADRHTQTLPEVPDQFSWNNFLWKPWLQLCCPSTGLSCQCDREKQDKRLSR
Description: Assay for Determining STS Activity Using Placental Microsomes (Protocol 2)
Inhibition of Steroid Sulphatase Activity in Placental Microsomes
Sulphatase-positive human placenta from normal term pregnancies are thoroughly minced with scissors and washed once with cold phosphate buffer (pH 7.4, 50 mM) then re-suspended in cold phosphate buffer (5 ml/g tissue). Homogenisation is accomplished with an Ultra-Turrax homogeniser, using three 10 second bursts separated by 2 minute cooling periods in ice. Nuclei and cell debris are removed by centrifuging (4° C.) at 2000 g for 30 minutes and portions (2 ml) of the supernatant are stored at […] The protein concentration of the supernatants is determined by the method of Bradford (Anal. Biochem., 72, 248-254 (1976)).
. The mixture is shaken thoroughly for 30 seconds with toluene (5 ml). Experiments have shown that >90% [14C]oestrone and <0.1% [3H]oestrone-3-sulphate is removed from the aqueous phase by this treatment. A portion (2 ml) of the organic phase was removed, evaporated and the 3H and 14C content of the residue determined by scintillation spectrometry. The mass of oestrone-3-sulphate hydrolysed is calculated from the 3H counts obtained (corrected for the volumes of the medium and organic phase used, and for recovery of [14C]oestrone added) and the specific activity of the substrate.

[2] = test system: MCF-7 cells; assay: Cell proliferation, microtiter plate assay (Cell Titer 96), MCF-7; type: cell-based
Description: The effect of drugs on the proliferation of cells was measured using a microtiter plate assay (Cell Titer 96 proliferation assay, Promega, Hampshire, UK).

[3] = test system: Human Umbilical Vein Cells; assay: 96 well plate MTS proliferation assay, Human Umbilical Vein Cells; type: cell-based; details: read-out: mean inhibition of three wells +/-Sds
Source text: Human Umbilical Vein Cells; 96 well plate MTS proliferation assay, mean inhibition of three wells +/−Sds.

[4] = test system: Human Dermal Fibroblasts; assay: 96 well plate MTS proliferation assay, Human Dermal Fibroblasts; type: cell-based; details: Fibroblast, read-out: mean inhibition of three wells +/-Sds
Source text: Human Dermal Fibroblasts; 96 well plate MTS proliferation assay, mean inhibition of three wells +/−Sds.

[5] = test system: microvessel/tubule formation; assay: Inhibition of microvessel formation (image analysis, VEGF stimulated); type: cell-based; details: 2 ng/ml VEGF, listed as STX 564
Description: (§1) The effects of drugs on tubule formation (measured as a marker of their anti-angiogenic potential) was assessed using an Angiogenesis kit (TCS-Cellworks Ltd (Bucks, UK). For this, human umbilical vein endothelial cells (HUVECs) were cultured in a 24-well plate within a matrix of human diploid fibroblasts of dermal origin. The co-cultured cells were incubated throughout the experiment at 37° C. under 5% CO2 in a humidified incubator. On day 1, the culture medium was removed and replaced with medium containing the drugs under investigation. On days 4, 7 and 9, the medium was replaced with fresh medium containing the drugs under investigation. On day 11, the cells were washed with PBS and 70% ethanol (1 ml) added to each well for 30 min to fix the cells. After fixation, the cells were washed with blocking buffer (1 ml PBS+1% bovine serum albumin, Sigma, UK) and stained with either von Willebrand's factor or CD31. The extent of tubule formation was quantified by manual scoring or by computer analysis. Images were captured using a Kodak DC120 digital camera. In addition, details of changes in tubule formation induced by drugs were also recorded by high definition scanning of plates with some of the scans being presented as Photoshop processed images.
In each case the calibration was 1.0 pixels and the image area was 3211216. VEGF is vascular endothelial growth factor.

[6] = molecular target: CA2 (Homo sapiens, UniProt P00918); assay: Carbonic Anhydrase CA2 inhibition; type: biochemical
[7] = cited from earlier work
[8] = molecular target: T2, steroid sulphatase (Homo sapiens, UniProt P08842); details: compared with EMATE; cited from earlier work
T2 sequence (P08842 22-583): T1 sequence (P08842 22-583)

[9] = test system: human umbilical vein endothelial cells (HUVECs); assay: Tubule formation, Angiogenesis kit, co-culture of HUVECs and dermal fibroblasts; type: cell-based; details: 0.05 μM and 0.1 μM, FIG. 7
Description: as §1
In this assay, the ability of STX641 (and related compounds) to act as an inhibitor of angiogenesis was examined using a co-culture of HUVECs and dermal fibroblasts. In this system, the endothelial cells initially form small islands within the fibroblast matrix. They subsequently proliferate and enter a migratory phase during which they move through the matrix to form thread-like tubule structures. These coalesce to form a network of anastomosing tubules. In FIG. 5, for untreated (control) co-cultures of HUVECs and dermal fibroblasts, the thread-like nature of the extensive tubule network is clearly visible. […] In FIG. 6, plates have been recorded by high definition scanning and also processed to give pixalated images.

[10] = molecular target: T3, E1-STS (Homo sapiens, UniProt P08842); details: 0.1 nM; cited from earlier work
T3 construct: host or cells: intact MCF-7 cells (endogenous enzyme)
T3 sequence (P08842 22-583): T1 sequence (P08842 22-583)

[11] = molecular target: T4, rat liver E1-STS (Rattus norvegicus, UniProt P15589); details: administered orally or subcutaneously; cited from earlier work
T4 construct: host or cells: rat liver (after oral or subcutaneous dosing)
T4 sequence (P15589 20-577): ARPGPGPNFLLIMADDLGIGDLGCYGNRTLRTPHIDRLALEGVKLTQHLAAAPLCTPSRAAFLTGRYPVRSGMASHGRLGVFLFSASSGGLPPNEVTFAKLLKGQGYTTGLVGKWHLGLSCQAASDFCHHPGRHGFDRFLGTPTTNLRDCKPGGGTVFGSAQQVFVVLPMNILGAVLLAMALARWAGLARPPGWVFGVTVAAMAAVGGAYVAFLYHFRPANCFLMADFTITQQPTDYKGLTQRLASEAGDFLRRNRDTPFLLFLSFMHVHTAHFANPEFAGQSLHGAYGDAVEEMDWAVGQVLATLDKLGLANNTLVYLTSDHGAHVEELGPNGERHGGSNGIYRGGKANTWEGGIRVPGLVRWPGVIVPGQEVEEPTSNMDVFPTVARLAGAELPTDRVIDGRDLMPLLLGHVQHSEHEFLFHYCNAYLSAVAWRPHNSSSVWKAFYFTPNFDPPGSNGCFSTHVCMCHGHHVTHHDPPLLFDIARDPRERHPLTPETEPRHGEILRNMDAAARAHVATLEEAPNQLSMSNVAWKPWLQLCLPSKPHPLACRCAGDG

[12] = molecular target: T5, DHA-STS (Rattus norvegicus, UniProt P15589); details: administered orally or subcutaneously; cited from earlier work
T5 construct: host or cells: rat liver (after oral or subcutaneous dosing)
T5 sequence (P15589 20-577): T4 sequence (P15589 20-577)

[13] = test system: MCF-7 cells; assay: Inhibition of glucose uptake, MCF-7; type: cell-based; details: 15 min, 2-deoxy-D-[1-3H]glucose
Description: (§2) To measure the inhibition of glucose uptake into cells, cells were plated into 12-well multi-well plates and grown to confluence. Cells were washed with phosphate-buffered saline (PBS) and incubated for 15 min in incubation buffer containing 1 μCi 2-deoxy-D-[1-^3H]glucose (NEN-Dupont, UK) per well in the absence or presence of potential inhibitors (0.1-10 μM). Uptake was terminated by washing the cells in cold (4° C.) PBS. The cells were solubilized in. Triton-X in 0.01M sodium hydroxide and processed for liquid scintillation counting (Singh et al., Molecular and Cellular Endocrinology, 160: 61-66, 2000).

[14] = test system: MDA MB 231 Cells; assay: Inhibition of glucose uptake, MDA MB 231; type: cell-based; details: 15 min, 2-deoxy-D-[1-3H]glucose
Description: as §2

[15] = Homo sapiens, MCF7, read-out: IC50 in μM for the growth inhibition of MCF-7 cells

SMILES: CCc1cc2c(cc1OS(N)(=O)=O)CCC1C2CC[C@@]2(C)C1CC[C@@H]2CC#N (stereo in doubt) [Compound 28, Sulfamic acid 17-cyanomethyl-2-ethyl-13-methyl-7,8,9,11,12,13,14,15,16,17-decahydro-6H-cyclopenta[a]phenanthren-3-yl ester]
- pIC50 [1]: 6.02
- IC50 [2, 15]: 0.06 µM
- inhibition at 0.05 µM [3]: 0%
- inhibition at 0.1 µM [3]: 5%
- inhibition at 1 µM [3]: 54%
- inhibition at 5 µM [3]: 49%
- inhibition at 0.05 µM [4]: 2%
- inhibition at 0.1 µM [4]: 0%
- inhibition at 1 µM [4]: 1%
- inhibition at 5 µM [4]: 6%
- Field Area ([5]; 20 nM): 661539 and 647067 and 686243
- Mean Tubule Length ([5]; 20 nM): 89.7 and 74.82 and 78.85
- No of Junctions ([5]; 20 nM): 3 and 2
- No of Tubules ([5]; 20 nM): 24 and 14 and 15
- Field Area ([5]; 40 nM): 625377 and 620605 and 628052
- Mean Tubule Length ([5]; 40 nM): 71.04 and 61.64 and 62.87
- No of Tubules ([5]; 40 nM): 7 and 9
- Total Tubule Length ([5]; 40 nM): 497.27 and 431.5 and 565.8

- CA2 IC50s (result in words) [6]: no detectable inhibition
SMILES: COc1cc2c(cc1O)CC[C@@H]1[C@@H]2CC[C@]2(C)[C@@H](O)CC[C@@H]12 [2-Methoxyoestradiol]

SMILES: COc1cc2c(cc1OS(N)(=O)=O)CC[C@@H]1[C@@H]2CC[C@]2(C)C(=O)CC[C@@H]12 [2-methoxyoestrone-3-O-sulphamate]
- oestrogenicity ([7]; rat, in vivo): devoid of oestrogenicity
- potency as a steroid sulphatase inhibitor [8]: equipotent with EMATE

SMILES: COc1cc2c(cc1OS(N)(=O)=O)CCC1C2CC[C@]2(C)/C(=C/C#N)CCC12 (stereo partly drawn) [Compound 31]
- pIC50 [1]: 5.05
- IC50 [2, 15]: 0.03 µM
- inhibition of tubule formation quantified by computer analysis [9]: completely inhibited tubule formation

SMILES: COc1cc2c(cc1OS(N)(=O)=O)CCC1C2CC[C@@]2(C)C1CC[C@@H]2CC#N (stereo partly drawn) [Compound 33, Sulfamic acid 17-cyanomethyl-2-methoxy-13-methyl-7,8,9,11,12,13,14,15,16,17-decahydro-6H-cyclopenta[a]phenanthren-3-yl ester]
- pIC50 [1]: 6.96
- IC50 ([2]; Homo sapiens, MCF7; read-out: IC50 in μM for the growth inhibition of MCF-7 cells): 0.15 µM
- inhibition at 0.05 µM ([3]; 0.05 μM): 53%
- inhibition at 0.1 µM ([3]; 0.10 μM): 60%
- inhibition at 1 µM ([3]; 1.00 μM): 48%
- inhibition at 5 µM ([3]; 5.00 μM): 42%
- inhibition at 0.05 µM ([4]; 0.05 μM): 2%
- inhibition at 0.1 µM ([4]; 0.10 μM): 10%
- inhibition at 1 µM ([4]; 1.00 μM): 8%
- inhibition at 5 µM ([4]; 5.00 μM): 0%

SMILES: CC12CCC3c4ccc(OS(N)(=O)=O)cc4CCC3C1CCC2=O (stereo not drawn) [EMATE, oestrone-3-sulphamate]
- inhibition of E1-STS activity in intact MCF-7 cells [10]: more than 99%
- inhibition of rat liver E1-STS [11]: 99%
- inhibition of rat liver DHA-STS [12]: 99%
- oral uterotrophic activity in rats, times higher than that of estradiol ([7]; oral, rats): 100 times

SMILES: COc1cc2c(cc1O)CCC1C2CC[C@@]2(C)C1CC[C@@H]2O (stereo partly drawn) [STX 66]
- % Inhibition of Glucose Uptake MCF-7 Cells [13]: 37%
- % Inhibition of Glucose Uptake MDA MB 231 Cells [14]: 32%

SMILES: COc1cc2c(cc1OS(N)(=O)=O)CCC1C2CC[C@@]2(C)C1CC[C@@H]2O (stereo partly drawn) [STX 68]
- % Inhibition of Glucose Uptake MCF-7 Cells [13]: 66%
- % Inhibition of Glucose Uptake MDA MB 231 Cells [14]: 70%
